In article PMC5609913, “Structure based design, synthesis and activity studies of small hybrid molecules as HDAC and G9a dual inhibitors” (Oncotarget, 2017):

How the values were obtained:
HDAC = test: Homogeneous cellular histone deacetylase assay, Hela; assay type: cell-based, human; conditions: Supplementary Table 2; NA = not active up to highest concentration tested (100 μM); >100 = IC50 not reached at 100 μM; read-out: IC50-HDAC Hela
Protocol: The enzymatic activity of HDAC was measured in intact cells using the homogeneous cellular assay method. A cell-permeable peptide Boc-K(Ac)-AMC used as the HDAC substrate, after deacetylation it is cleaved by trypsin to release the fluorescent 7-amino-4-methylcoumarin (AMC) and further quantified.
The manual assay was developed by Thomas's group. […] After 24 h, 9 μl inhibitors with different concentration were added to the HeLa cells and incubation was continued for 3 h under cell culture conditions. After this treatment period, 10 μl of a 2 mM stock solution of the substrate Boc-K(Ac)-AMC was added into the 96 well plates with Hela cells and inhibitors. […] A549 and K562 cell lines used the same method, respectively. IC50s were calculated using GraphPad Prizm statistical package with sigmoidal variable slope dose response curve fit.

MDA-MB-231 cells = test: Cell anti-proliferation / toxicity assay (CCK-8), MDA-MB-231; assay type: cell-based; conditions: Homo sapiens, MDA-MB-231; Supplementary Table 4; 72 h, CCK-8; >100 = not reached at 100 μM; read-out: EC50 MDA-MB-231
Protocol: Initial tests designed around assessing whether a synergistic effect would be observed in real when a combination of G9a inhibitor and HDAC inhibitor used in conjunction.
Cell anti-proliferation assays were performed to determine the toxicity of these inhibitors. Several cell lines (MDA-MB-231, MCF-7 and A549) were incubated and then treated with varying concentrations of the inhibitors for 72 h, respectively. […] These compounds were further evaluated against the control cell line HEK293 to test their toxicity with a non-cancerous cell line.
A549, MDA-MB-231, MCF-7 and HEK293 cells were seeded at 8000-10000 cells (100 μl) in white 96-well plates and pre-incubate the plate for 24 h under standard cell culture conditions, respectively. And then the cells were exposed to the different inhibitors with various concentrations for 72 h. Finally, 10 μl of CCK-8 kit solution was added to each well and incubated for 3-4 hours under standard cell culture conditions, and the 96 well plates were measured the absorbance at 450 nm using Perkin–Elmer Wallac Victor ^3V 1420 multi label plate reader (Perkin–Elmer, Wellesley, USA). EC50s were calculated using GraphPad Prizm statistical package with sigmoidal variable slope dose response curve fit.

[1] = molecular target: T1, Mouse histone methyltransferase G9a (969-1263) (Mus musculus, UniProt Q9Z148); test: MALDI-TOF methylation study of G9a enzymatic activity (H3 peptide, SAM); assay type: biochemical; conditions: Supplementary Table 1; inhibitor 5 μM, 30 min; average of 3 values
T1 construct: The 6His-sumo mG9a (969-1263) protein was purified using the following procedure; 6His-sumo (N, cleaved yes); made in house; host or cells: Escherichia coli BL21 (DE3)
T1 sequence (Q9Z148 969-1263): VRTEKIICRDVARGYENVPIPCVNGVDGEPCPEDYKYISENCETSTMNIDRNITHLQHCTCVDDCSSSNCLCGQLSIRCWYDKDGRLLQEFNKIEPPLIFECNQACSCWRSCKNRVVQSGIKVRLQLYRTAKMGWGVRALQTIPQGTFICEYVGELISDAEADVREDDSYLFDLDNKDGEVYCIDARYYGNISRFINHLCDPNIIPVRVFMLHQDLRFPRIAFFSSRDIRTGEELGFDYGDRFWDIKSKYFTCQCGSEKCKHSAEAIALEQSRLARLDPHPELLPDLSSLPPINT
Protocol: Figure 3 compounds were synthesized from the commercially available starting material 1. An initial displacement reaction using a primary amine was used to introduce the C4 selective substitution, with the second displacement to introduce the linker at the C2 position following the microwave assisted reaction previously reported. Boc-protected ethylene diamine was treated with compound 2 at 160°C in a microwave for 10 min to yield product 3 with excellent yield. Afterward, the amine 3 was deprotected with TFA/DCM, and the free amine was treated with corresponding monomethyl esters (carbon chain 2-6) in the presence of coupling reagent EDCI and HOBt for about 8 hours to produce mono methyl ester substituted at the C2 position. The ester compounds further treated with hydroxylamine in water to get the corresponding hydroxamic acid derivatives, which were purified using reverse phase flash chromatography to obtain compounds 4-7 and 4a-7a in good yield. Synthesis of compounds in Figure 4 requires the C6 demethoxy core, and this was synthesized according to the reported procedure to yield 10 [45]. […] Compounds with the HDAC pharmacophore at the C4 position (Figure 2B) were synthesized from the starting material 1. […] A parallel synthesis and testing strategy were used in establishing the primary SAR, with the clear rationalization of the structure and activity at each stage we could reduce the synthetic targets. Initially, we evaluated the G9a potential after the introduction of HDAC pharmacophore. A biochemical assay using MALDI-TOF was used to visualize the effects of the synthesized compounds on G9a enzymatic activity, we carried out a biochemical reaction involving target enzyme G9a, methyl donor SAM and substrate H3 peptide at a concentration of 400 nM, 10 μM and 5 μM respectively.
Mouse histone methyltransferase G9a (969-1263) cDNA was amplified from the cDNA of BALB/c mouse thymus, and the fragment was sub-cloned into a vector with a 6His-sumo tag. The mouse G9a (mG9a) was expressed in Escherichia coli BL21 (DE3) by the addition of 1 mM isopropyl-1-thio-D-galactopyranoside (IPTG) and incubated overnight at 16°C.
The in vitro inhibition of G9a by the synthesized compounds were measured by MALDI-TOF mass spectrum (Bruker MALDI TOF/TOF Analyzer). 400 nM purified G9a, 5 μM synthesized histone H3 (1-21) and 10 μM non-radioactive S-adenosyl methionine (Sigma) were added in reaction buffer (50 mM HEPES pH 8.0, 5 μg/ml BSA and 0.1% β-Mercaptoethanol) with or without inhibitors (5 μM). The reaction was incubated at room temperature for 30 min, and stopped by TFA. 1 μl of the sample was mixed with CHCA matrix and m/z peaks were obtained at reflection positive mode. The results of mass spectrum were analyzed using the Bruker flex analysis software, a detailed description of data processing is provided as supplementary information (S3).
[…]
MALDI spectrums were collected using Bruker flex % conversion to product is also C, from this to get the control software and analyzed by flex analysis. After %maximal activity (%MA), C was compared to the % labelling each cluster peaks of H3K9Me0, H3K9Me1 conversion when no inhibitor was used (D). and H3K9Me2 for all of the tested concentrations, area Finally % inhibition was found by subtracting under the cluster (AUC) were extracted by using the same %MA from 100 […]
flex analysis software. % abundance of each peak was Example: % methylation levels and % inhibition calculated by following formula, when used 5 μM compound 14
A = % Abundance of (H3K9Me0) = area of A = 13.09
B = % Abundance of (H3K9Me1) = area of % conversion when no inhibitor was used D = 84.43 H3K9Me1/ (area of H3K9Me0+area of H3K9Me1 + area (average of six measurements) […]

IC50 (HDAC): > 100 µM
inhibition at 5 µM [1]: 40.3 ± 15.3%
Compound: COc1ccc2c(NCCNC(=O)CCCCCC(=O)NO)nc(N3CCCN(C)CC3)nc2c1 [Compound 22, N1-hydroxy-N7-(2-((7-methoxy-2-(4-methyl-1,4-diazepan-1-yl)quinazolin-4-yl)amino)ethyl)heptanediamide]
EC50 (MDA-MB-231 cells): > 100 µM
